Reference: patent US20210363170A1, “4'-THIO-NUCLEOTIDE AND -NUCLEOSIDE PRODRUGS FOR THE TREATMENT OF CANCER” (Southern Research Institute, priority 2018, published 2021)
pIC50: −log10 of the molar value. Like-named read-outs stand apart in the source and are kept apart here.

Key:
Assay type in all cases: cell-based
KG-1a cells = experiment: Cell viability assay (CellTiter Glo, 72 hours) in KG-1a cells; conditions: read-out: Cell Line IC50 (μM) KG-1a
Method: (§1) KG1a (CCL-246.1, ATCC) and CCRF-CEM (CCL-199, ATCC) cells were grown in RPMI-1640 media containing 10% FBS in T-75 flasks to a density of 1×10^6 cells per mL. Exponentially gown cells were used for the assay. Day 1: 7.5×10^3 cells were seeded in each well of 96 well plate. Day 2: Cells were treated with serial dilutions of each compound (starting 20 uM) or with DMSO as control for 72 hours. Day 5: CellTiter Glo (G9241, Promega) was added to the media of each well and measured by plate reader (Synergy 4, Biotek). Data analysis: Using GraphPad Prism 7 (GraphPad).

CCRF-CEM cells = experiment: Cell viability assay (CellTiter Glo, 72 hours) in CEM cells; conditions: read-out: Cell Line IC50 (μM) CEM
Method: as §1

DNMT-1 = experiment: Western blot analysis of DNMT-1 in CEM cells; conditions: DNMT-1 depletion in CEM cells, 96 hours
Method: Cells were treated with serial dilutions of each compound (starting 100 uM for HCT-116 and NCI-H23 cells, and 20 uM for KG-1a and CCRF-CEM cells) or with DMSO as control for 96 hours. Cell lysates were collected and proteins were separated with a SDS-PAGE gel, transferred to a nitrocellulose membrane, blocked in 5% non-fat milk in TBS-T, and probed with anti DNMT-1 (1:7000) rabbit polyclonal antibodies (cat #ab19905, Abcam) in 5% non-fat milk in TBS-T overnight. Membranes were washed three times with TBS-T. The anti-rabbit IgG (7074p2, Cell Signaling) secondary antibody was added at a concentration of 1:5000 in 5% non-fat milk in TBS-T for two hours in room temperature. Membranes were then washed three times with TBS-T, 5 minutes each time. Membranes were then incubated with SuperSignal West Pico Chemiluminescent Substrate (#34080 Thermo) and exposed onto film. Membranes were stripped with stripping buffer (#21059, Thermo) and re-probed with mouse anti tubulin 1:10,000 (T9026, Sigma) and anti-mouse IgG 1:5,000 (70′76p2, Cell Signaling).

CEM cells [1] = experiment: Nucleoside transporter (hENT-1) activity: CEM cell viability with or without the hENT-1 inhibitor dipyridamole; conditions: for IC50: CEM cells, 72 hours
Method: 7.5×10^3 cells/well were plated in a 96 well plate in duplicate. Either compound 2 and Aza-T-dCyd were dosed at a 1:5 10-point serial dilution with a top dose of 5 μM in the presence of 5 μM Dipyridamole (DPD, Sigma Cat #: D9766 CAS 58-32-2), a hENT-1 inhibitor. Cells were cultured in the presence of compound for 72 hours. CellTiter Glo (G9241, Promega) was added to the media of each well and measured by a plate reader (Synergy 4, Biotek). The results were analyzed by GraphPad Prism 7 (GraphPad).

HCT-116 cells = experiment: Cytidine deaminase (CDA) activity: HCT-116 cell viability with or without the CDA inhibitor tetrahydrouridine; conditions: for IC50: HCT-116 cells, 72 hours
Method: […] cells/well were plated in a 96 well plate in duplicate. Tetrahydrouridine (THU), a Cytidine Deaminase inhibitor was dosed at 1:5 10-point serial dilution, with a top dose of 100 μM, as a control. […] Cells were cultured in the presence of compound for 72 hours and then assayed by cell titer glow for viability.

CEM cells [2] = experiment: Deoxycytidine kinase (dCK) activity: CEM cell viability with or without 2'-deoxycytidine; conditions: for IC50: CEM cells, 72 hours
Method: 7.5×10^3 cells/well were plated in a 96 well plate in duplicate. […] Cells were cultured in the presence of compound for 72 hours. CellTiter Glo (G9241, Promega) was added to the media of each well and measured by a plate reader (Synergy 4, Biotek). The results were analyzed by GraphPad Prism 7 (GraphPad).

| Compound | IC50 (KG-1a cells; Homo sapiens) [µM] | IC50 (CCRF-CEM cells; Homo sapiens, CCRF-CEM) [µM] | pIC50 (DNMT-1) | IC50 (CEM cells [1]; Homo sapiens, CCRF-CEM, with 5 μM dipyridamole (hENT-1 inhibitor), read-out: CEM IC50 (μM) With DPD (5 μM)) [µM] | IC50 (CEM cells [1]; Homo sapiens, CCRF-CEM, without dipyridamole, read-out: CEM IC50 (μM) Without DPD) [µM] | IC50 (HCT-116 cells; Homo sapiens, with 20 μM tetrahydrouridine (CDA inhibitor), read-out: HCT-116 IC50 (μM) With THU (20 μM)) [µM] | IC50 (HCT-116 cells; Homo sapiens, without tetrahydrouridine, read-out: HCT-116 IC50 (μM) Without THU) [µM] | IC50 (CEM cells [2]; Homo sapiens, CCRF-CEM, with 20 μM 2'-deoxycytidine (dCK inhibitor), read-out: CEM IC50 (μM) With dCyd (20 μM)) [µM] | IC50 (CEM cells [2]; Homo sapiens, CCRF-CEM, without 2'-deoxycytidine, read-out: CEM IC50 (μM) Without dCyd) [µM] | IC50 (KG-1a cells) [µM] | IC50 (CCRF-CEM cells) [µM] | IC50 (CEM cells [1]; with 5 μM dipyridamole (hENT-1 inhibitor), read-out: CEM IC50 (μM) With DPD (5 μM)) [µM] | IC50 (CEM cells [1]; without dipyridamole, read-out: CEM IC50 (μM) Without DPD) [µM] | reliance on hENT-1 to enter the cancer cells (CEM cells [1]; conclusion in words from Table 3) | IC50 (HCT-116 cells; with 20 μM tetrahydrouridine (CDA inhibitor), read-out: HCT-116 IC50 (μM) With THU (20 μM)) [µM] | IC50 (HCT-116 cells; without tetrahydrouridine, read-out: HCT-116 IC50 (μM) Without THU) [µM] | overcoming cytidine deaminase compared to parent drug (HCT-116 cells; conclusion in words from Table 4) | IC50 (CEM cells [2]; with 20 μM 2'-deoxycytidine (dCK inhibitor), read-out: CEM IC50 (μM) With dCyd (20 μM)) [µM] | IC50 (CEM cells [2]; without 2'-deoxycytidine, read-out: CEM IC50 (μM) Without dCyd) [µM] | reliance on dCK activation compared to parent drug (CEM cells [2]; conclusion in words from Table 5) |
| --- | --- | --- | --- | --- | --- | --- | --- | --- | --- | --- | --- | --- | --- | --- | --- | --- | --- | --- | --- | --- |
| Nc1ncn([C@H]2C[C@H](O)[C@@H](CO)S2)c(=O)n1 [Aza-T-dCyd, 5-aza-4′-Thio-2′-deoxycytidine, reference compound] | 0.03 | 0.03 | 6.42 | > 3 | 0.03 | 0.7 | 7 | 19 | 0.03 |  |  |  |  |  |  |  |  |  |  |  |
| 2-ethylbutyl ((S)-(((2R,3S,5R)-5-(4-amino-2-oxo-1,3,5-triazin-1(2H)-yl)-3-hydroxytetrahydrothiophen-2-yl)methoxy)(phenoxy)phosphoryl)-L-alaninate [Compound 3] |  |  | 6.21 |  |  |  |  |  |  | 1.5 | 0.16 | 3.1 | 0.35 | does not significantly rely on hENT-1 | 12 | 8 | did overcome CAD | 6.5 | 0.3 | does not rely on dCK activation |
